The numbers were not newly measured in patent US20100129448A1, “TOPICAL HYDROGEL COMPOSITION” (Nanotherapeutics, Inc., priority 2008, published 2010), which cites them from elsewhere.

The structures appear in SMILES notation.

Take `C[C@H]1c2cccc(O)c2C(=O)C2=C(O)[C@]3(O)C(=O)C(C(N)=O)=C(O)[C@@H](N(C)C)[C@@H]3[C@@H](O)[C@@H]21` [Doxycycline Monohydrate]: under “pH greater than 6”, the aqueous solubility entry is on record as “less than 0.8 mg/ml”. Turning to `C[C@H]1c2cccc(O)c2C(=O)C2=C(O)[C@]3(O)C(=O)C(C(N)=O)=C(O)[C@@H](N(C)C)[C@@H]3[C@@H](O)[C@@H]21` [Doxycycline], where the note is “neutral pH”, the solubility result was “less than 10 mg/ml”.
